From US20050154046A1, “Methods of treating an inflammatory-related disease” (priority 2004, published 2005)

System: idiopathic inflammatory bowel disease
Assay type: in vivo, human
Protocol: The first diagnosis was performed at North Shore University Hospital Manhasset, Long Island, N.Y. in 1999 by colonoscope. Major symptoms included diarrhea, loose stool and bleeding while their overall condition of health was considered excellent. Clinical-activity index (Table 5) (113) was determined to be between 7 and 8. Their physician prescribed hydrocortisone foam, which they administered for 10 days according to doctor's instructions. […] In early 2002, they went to a well-known and respected Chinese Medical Hospital in Beijing where Flexible Sigmoidoscopy was performed. Again, they were diagnosed as having active inflammatory bowel disease.
At this time, as previous treatments had no effect, their physician prescribed several traditional Chinese medicines. They administered these for several months, yet no improvement of their symptoms resulted. During the period of February 2000 to the summer of 2002, they also tried various other traditional Chinese medicines due to the continued and very troublesome nature of their disease, but nothing was successful. Upon returning to the United States in 2002, they went to the Mount Sinai Medical Center, a nationally recognized American center for the treatment of inflammatory bowel disease. In October 2002, their new physician again performed a colonoscope, together with a histological examination of two biopsy samples (A and B) (FIG. 8, panel A, before the treatment).
These included skin itch, abdominal cramping, pain and bleeding. They then asked their physician for advice and was instructed to use this medication on an intermittently. However, the side effects continued actually worsened each time the medication was used. They then halted all application of this medication.
The patient voluntarily administered Meisoindigo at a recommended dose of 25 mg, once a day for a scheduled three weeks of treatment. […] After nine weeks of remission (three weeks on the medicine, three weeks off of the medicine, and three weeks on the medicine again), the patient again visited their physician and requested a Flexible Sigmoidoscopy to determine if their remission was subjective or objective. The Flexible Sigmoidoscopy was performed on Nov. 4, 2003. After reviewing the results their physician concluded that their inflammation completely arrested.

[1] = 25 mg once a day, before treatment 0
[2] = 25 mg once a day, before treatment 1
[3] = 25 mg once a day, before treatment 2

CN1C(=O)/C(=C2/C(=O)Nc3ccccc32)c2ccccc21 [Meisoindigo]
clinical response (25 mg once a day, after the first three doses): complete remission
Patient Score After Treatment: Abdominal tenderness [1]: 0
Patient Score After Treatment: Nocturnal diarrhea [1]: 0
Patient Score After Treatment: Abdominal pain or cramping [2]: 0
Patient Score After Treatment: Fecal incontinence [2]: 0
Patient Score After Treatment: Need for antidiarrhea drugs [2]: 0
Patient Score After Treatment: Diarrhea (No. of daily stools) [3]: 0
Patient Score After Treatment: General well-being [3]: 0
Patient Score After Treatment: Visible blood in stool (% of movements) [3]: 0
Flexible Sigmoidoscopy / pathological examination after treatment (after nine weeks of remission (three weeks on, three off, three on)): inactive chronic protocolitis suggestive of idiopathic inflammatory bowel disease
total amount of drug needed to obtain a complete cure of the inflammatory bowel disease (human, in vivo): 525 mg
